Assay results as given in the Deep4Chem optical property database.
Each block holds one compound with its values, some of them ahead of it.

Test: photoluminescence quantum yield (fraction); solvent given as SMILES

- photoluminescence quantum yield (in CO): 0.27
- photoluminescence quantum yield (in CS(C)=O): 0.55
- photoluminescence quantum yield (in O): 0.05
SMILES: CCCN1/C(=C/C=C/C=C/C2=[N+](CCC)c3ccccc3C2(C)C)C(C)(C)c2ccccc21

- photoluminescence quantum yield (in ClCCl): 0.39
SMILES: C[Si]1(C)O[Si](C)(C)c2cc3c(-c4ccc(F)cc4)c4ccccc4nc3cc21

SMILES: COc1ccc(-c2nc(-c3ccc(OC)cc3C)nc(-c3ccc(N4c5ccccc5C5(c6ccccc6-c6ccccc65)c5ccccc54)cc3C)n2)c(C)c1
- photoluminescence quantum yield (in O=P(c1ccccc1)(c1ccccc1)c1ccccc1Oc1ccccc1P(=O)(c1ccccc1)c1ccccc1): 0.51

- photoluminescence quantum yield (in CC1CCCO1): 0.83
SMILES: O=S1(=O)c2ccc(-c3ccc4c(c3)c3ccccc3n4-c3ccccc3)cc2C2(c3cc(-c4ccc5c(c4)c4ccccc4n5-c4ccccc4)ccc31)c1cc(-c3ccc4c(c3)c3ccccc3n4-c3ccccc3)ccc1S(=O)(=O)c1ccc(-c3ccc4c(c3)c3ccccc3n4-c3ccccc3)cc12

- photoluminescence quantum yield (in C1CCOC1): 0.03
SMILES: COc1ccc(C(=Cc2ccc(/C=C/c3ccc(C#N)cc3)cc2)c2ccc(OC)cc2)cc1

- photoluminescence quantum yield (in ClC(Cl)Cl): 0.1
SMILES: CC(C)c1cccc(C(C)C)c1-n1c(=O)c2cc3nc(-c4ccccc4)c4cc5c(=O)n(-c6c(C(C)C)cccc6C(C)C)c(=O)c6cc7c(-c8ccccc8)nc8cc(c1=O)c2c1c3c4c(c56)c7c81

SMILES: O=P1(c2ccccc2)c2ccc(N3c4ccccc4Sc4ccccc43)cc2-c2cc(N3c4ccccc4Sc4ccccc43)ccc21
- photoluminescence quantum yield (in Cc1ccccc1): 0.59
- photoluminescence quantum yield (in c1ccc2c(c1)c1ccccc1n2-c1ccc(-c2ccc(-n3c4ccccc4c4ccccc43)cc2)cc1): 0.53

SMILES: CC(C)(C)c1ccc2c(c1)[nH]c1c3[nH]c4cc(C(C)(C)C)ccc4c3c3nsnc3c21
- photoluminescence quantum yield (in CN(C)C=O): 0.09
- photoluminescence quantum yield (in Cc1ccccc1): 0.11
- photoluminescence quantum yield (in ClCCl): 0.12

- photoluminescence quantum yield (in C1CCOC1): 0.14
- photoluminescence quantum yield (in ClC(Cl)Cl): 0.144
SMILES: CCCCCCCCC1(CCCCCCCC)c2cc3c(cc2-c2sc(-c4ccc(/C=C5\SC(N6CCCCC6)=NC5=O)c5nsnc45)cc21)C(CCCCCCCC)(CCCCCCCC)c1cc(-c2ccc(/C=C4\SC(N5CCCCC5)=NC4=O)c4nsnc24)sc1-3

SMILES: COc1ccc(C2=C(Br)C(c3ccccc3)=[N+]3C2=Nc2c(-c4ccc(OC)cc4)c(Br)c(-c4ccccc4)n2[B-]3(F)F)cc1
- photoluminescence quantum yield (in Cc1ccccc1): 0.01

- photoluminescence quantum yield (in CN(C)C=O): 0.076
SMILES: Cc1ccc2nc(-c3cccc4nc(C)[nH]c(=O)c34)oc2c1

- photoluminescence quantum yield (in ClCCl): 0.55
SMILES: C(=C\c1cc(/C=C/c2ccc(N(c3ccccc3)c3ccccc3)cc2)ncn1)/c1ccc(N(c2ccccc2)c2ccccc2)cc1

- photoluminescence quantum yield (in CC(C)(C)O): 0.11
- photoluminescence quantum yield (in CC(C)CO): 0.1
- photoluminescence quantum yield (in CC(C)O): 0.1
- photoluminescence quantum yield (in CCCCO): 0.17
- photoluminescence quantum yield (in CCCO): 0.19
- photoluminescence quantum yield (in CCO): 0.18
- photoluminescence quantum yield (in CN(C)C=O): 0.03
- photoluminescence quantum yield (in CNC=O): 0.08
- photoluminescence quantum yield (in CO): 0.22
- photoluminescence quantum yield (in NC=O): 0.3
- photoluminescence quantum yield (in O): 0.54
SMILES: COCCOc1cc(C=O)c(OCCOC)cc1C=O

- photoluminescence quantum yield (in ClCCl): 0.07
SMILES: Cc1ccc(-c2ccc(C(=O)NC(C)(C)C)c3c2ccc2c4ccccc4c4ccccc4c23)cc1

SMILES: COC(=O)c1ccc2ccc3cccc4ccc1c2c34
- photoluminescence quantum yield (in C1CCOC1): 0.68
- photoluminescence quantum yield (in CC#N): 0.79
- photoluminescence quantum yield (in CCCCCC): 0.63
- photoluminescence quantum yield (in CCO): 0.81
- photoluminescence quantum yield (in CN(C)C=O): 0.74
- photoluminescence quantum yield (in CO): 0.69
- photoluminescence quantum yield (in Cc1ccccc1): 0.76
- photoluminescence quantum yield (in ClCCl): 0.56

- photoluminescence quantum yield (in CC#N): 0.61
- photoluminescence quantum yield (in CO): 0.28
- photoluminescence quantum yield (in ClCCl): 0.78
SMILES: O=C1c2ccccc2-c2c(-c3cc(Cl)ccc3O)[nH]c(=O)n21

- photoluminescence quantum yield (in ClCCl): 0.11
SMILES: c1ccc(-c2nc(-c3ccc(N4c5ccccc5Oc5ccccc54)cc3)nn2-c2ccc(N3c4ccccc4Oc4ccccc43)cc2)nc1

- photoluminescence quantum yield (in C1CCCCC1): 0.79
SMILES: CCCC1(CCC)c2cc(-c3ccc(-c4ccc(OC)cc4)o3)ccc2-c2ccc(-c3ccc(-c4ccc(OC)cc4)o3)cc21

- photoluminescence quantum yield (in ClCCl): 0.91
SMILES: N#Cc1ccc(N(c2ccc(C#N)cc2)c2ccc3c4cccc5c(N(c6ccc(C#N)cc6)c6ccc(C#N)cc6)ccc(c6cccc2c63)c54)cc1

SMILES: Cc1ccccc1-c1cc(-c2ccc(N3c4ccccc4C(C)(C)c4ccccc43)cc2)nc(-c2ccccc2)n1
- photoluminescence quantum yield (in CC#N): 0.101
- photoluminescence quantum yield (in Cc1ccccc1): 0.777
- photoluminescence quantum yield (in ClCCl): 0.884

SMILES: c1ccc(N2c3ccc4ccccc4c3-c3c4ccccc4nc[n+]3[B-]2(c2ccccc2)c2ccccc2)cc1
- photoluminescence quantum yield (in C1CCC2CCCCC2C1): 0.07
- photoluminescence quantum yield (in C1CCCCC1): 0.06
- photoluminescence quantum yield (in CCCCCC): 0.06
- photoluminescence quantum yield (in CCOC(C)=O): 0.02
- photoluminescence quantum yield (in Cc1ccccc1): 0.03
- photoluminescence quantum yield (in ClC(Cl)Cl): 0.01

- photoluminescence quantum yield (in ClCCl): 0.55
SMILES: COc1ccc(-c2cc3c(ccc4sccc43)s2)cc1

- photoluminescence quantum yield (in ClC(Cl)Cl): 0.73
SMILES: CCCCN1C(=O)c2ccc3c4c(Br)cc5c6c(ccc(c7c(Br)cc(c2c37)C1=O)c64)C(=O)N(CCCC)C5=O

- photoluminescence quantum yield (in CCO): 0.48
- photoluminescence quantum yield (in O): 0.38
SMILES: CN(C)c1ccc2cc3ccc(=[N+](C)C)cc-3oc2c1

- photoluminescence quantum yield (in ClCCl): 0.61
SMILES: Cc1ccc(N(c2ccc(C)cc2)c2ccc3c4cccc5c(N(c6ccc(C)cc6)c6ccc(C)cc6)ccc(c6cccc2c63)c54)cc1

SMILES: c1cc2ccc3ccc4cc3c2cc1c1ccc2c(c1)c1cc(ccc1[C@]13OCCO[C@]21OCCO3)c1ccc2c(c1)c1cc4ccc1[C@]13OCCO[C@]21OCCO3
- photoluminescence quantum yield (in Cc1ccccc1): 0.63

- photoluminescence quantum yield (in ClC(Cl)Cl): 0.59
SMILES: c1csc(-c2ccc(-c3cccs3)c3nsnc23)c1

- photoluminescence quantum yield (in C1CCCCC1): 1
SMILES: CCCC1(CCC)c2cc(-c3ccccc3)ccc2-c2ccc(-c3ccc4c(c3)C(CCC)(CCC)c3cc(-c5ccccc5)ccc3-4)cc21

- photoluminescence quantum yield (in CC#N): 0.607
SMILES: N#Cc1nn(-c2ccccc2Cl)nc1N1CCCC1

- photoluminescence quantum yield (in CC#N): 0.025
- photoluminescence quantum yield (in CO): 0.013
- photoluminescence quantum yield (in ClCCl): 0.163
- photoluminescence quantum yield (in O): 0.003
SMILES: O=C(O)CC[N+]1=c2cc3c(cc2CCC1)=Cc1c(c2cc4c5c(c2oc1=O)CCCN5CCC4)O3

SMILES: Nc1ccc2c(c1)C(=O)N(C13C[C@H]4C[C@@H](C1)C[C@@H](C3)C4)C2=O
- photoluminescence quantum yield (in C1CCCCC1): 0.38
- photoluminescence quantum yield (in C1CCOC1): 0.59
- photoluminescence quantum yield (in CC#N): 0.62
- photoluminescence quantum yield (in CCOC(C)=O): 0.58
- photoluminescence quantum yield (in CO): 0.17
- photoluminescence quantum yield (in CS(C)=O): 0.8
- photoluminescence quantum yield (in Cc1ccccc1): 0.8
- photoluminescence quantum yield (in ClCCl): 0.85

SMILES: O=[N+]([O-])c1ccc([N+]2=Cc3ccc4c5c(ccc4c3O[B-]2(c2c(F)c(F)c(F)c(F)c2F)c2c(F)c(F)c(F)c(F)c2F)C=[N+](c2ccc([N+](=O)[O-])cc2)[B-](c2c(F)c(F)c(F)c(F)c2F)(c2c(F)c(F)c(F)c(F)c2F)O5)cc1
- photoluminescence quantum yield (in Cc1ccccc1): 0.83
- photoluminescence quantum yield (in ClCCl): 0.66

SMILES: Cn1cccc1-c1ccc(C#N)cc1
- photoluminescence quantum yield (in C1CCOC1): 0.94
- photoluminescence quantum yield (in CC#N): 0.51
- photoluminescence quantum yield (in CCCCCC): 0.92
- photoluminescence quantum yield (in CCCCOCCCC): 1
- photoluminescence quantum yield (in CCOCC): 0.98

- photoluminescence quantum yield (in ClCCl): 0.46
SMILES: COc1ccc(-c2cc(-c3ccccc3)c3n2[B-](F)(F)[N+]2=C4C=NC=CN4[B-](F)(F)[N+]2=C3)cc1

- photoluminescence quantum yield (in C1CCOC1): 0.01
SMILES: CN(C)c1ccc(C2=C(c3ccccc3)c3sc4ccccc4[n+]3[B-](F)(F)O2)cc1

SMILES: CN(C)c1ccc(/C=C2\CC/C(=C\c3ccc(C#N)cc3)C2=O)cc1
- photoluminescence quantum yield (in C1CCOC1): 0.027
- photoluminescence quantum yield (in CC#N): 0.0036
- photoluminescence quantum yield (in CC(C)=O): 0.0095
- photoluminescence quantum yield (in CC(C)O): 0.026
- photoluminescence quantum yield (in CCCCO): 0.017
- photoluminescence quantum yield (in CCCCOC(C)=O): 0.14
- photoluminescence quantum yield (in CCCO): 0.013
- photoluminescence quantum yield (in CCO): 0.0061
- photoluminescence quantum yield (in CCOC(=O)c1ccccc1): 0.18
- photoluminescence quantum yield (in CCOC(C)=O): 0.09
- photoluminescence quantum yield (in CCOCC): 0.074
- photoluminescence quantum yield (in CN(C)C=O): 0.0066
- photoluminescence quantum yield (in CO): 0.0027
- photoluminescence quantum yield (in CS(C)=O): 0.0074
- photoluminescence quantum yield (in Cc1ccccc1): 0.05
- photoluminescence quantum yield (in ClC(Cl)(Cl)Cl): 0.019
- photoluminescence quantum yield (in ClC(Cl)Cl): 0.3
- photoluminescence quantum yield (in ClCCl): 0.17
- photoluminescence quantum yield (in Clc1ccccc1Cl): 0.29
- photoluminescence quantum yield (in O=C1CCCC1): 0.034
- photoluminescence quantum yield (in S=C=S): 0.034
- photoluminescence quantum yield (in c1ccccc1): 0.066
- photoluminescence quantum yield (in c1ccncc1): 0.051

- photoluminescence quantum yield (in ClCCl): 0.17
SMILES: COC(=O)CCC1=CC(C#Cc2cccs2)=[N+]2C1=Cc1c(CCC(=O)OC)cc(C#Cc3cccs3)n1[B-]2(F)F

- photoluminescence quantum yield (in ClCCl): 0.89
SMILES: O=S1(=O)c2ccc(-c3ccc(N(c4ccccc4)c4ccccc4)cc3)cc2C2(c3ccccc3-c3ccccc32)c2cc(-c3ccc(N(c4ccccc4)c4ccccc4)cc3)ccc21

- photoluminescence quantum yield (in ClCCl): 0.15
SMILES: CCCCCCC1(CCCCCC)c2cc(-c3ccc(-c4ccc(-c5ccc(-c6ccc7c(c6)C(CCCCCC)(CCCCCC)c6cc(-n8c9ccc(-n%10c%11ccccc%11c%11ccccc%11%10)cc9c9cc(-n%10c%11ccccc%11c%11ccccc%11%10)ccc98)ccc6-7)s5)c5nsnc45)s3)ccc2-c2ccc(-n3c4ccc(-n5c6ccccc6c6ccccc65)cc4c4cc(-n5c6ccccc6c6ccccc65)ccc43)cc21

- photoluminescence quantum yield (in ClCCl): 0.38
SMILES: CCCCCCN1C(=O)c2cccc3c(-c4ccc(-c5cc(-c6ccc(OC)cc6)n(-c6ccccc6)n5)s4)ccc(c23)C1=O

- photoluminescence quantum yield (in CC#N): 0.41
SMILES: CCCC(=O)c1c(OCOC)c(OCOC)c(C(=O)CCC)c2c1OCO2

- photoluminescence quantum yield (in ClCCl): 0.0027
SMILES: CC(=O)c1c(N[C@@H](CC(C)C)C(=O)O)c2ccc(N(C)C)cc2oc1=O

- photoluminescence quantum yield (in C1CCOC1): 0.803
SMILES: CC(C)(C)c1ccc(-c2c(-c3ccc(-n4c5ccccc5c5ccccc54)cc3)c(C#N)c(-c3ccc(-n4c5ccccc5c5ccccc54)cc3)c(-c3ccc(C(C)(C)C)cc3)c2-c2ccc(C(C)(C)C)cc2)cc1

- photoluminescence quantum yield (in C1CCCCC1): 0.07
- photoluminescence quantum yield (in CC#N): 0.03
- photoluminescence quantum yield (in CO): 0.04
- photoluminescence quantum yield (in ClC(Cl)Cl): 0.02
SMILES: CC1(C)CC(NCc2ccc3ccc4cccc5ccc2c3c45)CC(C)(C)N1[O]

- photoluminescence quantum yield (in C1COCCO1): 0.61
- photoluminescence quantum yield (in CC#N): 0.58
- photoluminescence quantum yield (in CO): 0.49
- photoluminescence quantum yield (in ClCCl): 0.58
SMILES: CNc1ncc2nc(C#N)n(Cc3ccccc3)c2n1
